Test results: article PMC4643876, “Picomolar Inhibition of Plasmepsin V, an Essential Malaria Protease, Achieved Exploiting the Prime Region” (PLoS ONE, 2015)
Several values for one entry are separate records, joined by “and”; a condition that tells them apart may be missing. Equal values may be shown once. Read-outs that look alike come from different tables or passages of the source. * marks the point of attachment. DABCYL = CN(C)c1ccc(/N=N/c2ccc(C(=O)*)cc2)cc1; EDANS = O=S(=O)(O)c1cccc2c(NCCN*)cccc12

Experiments:
PmV-GFP = target: T1, PmV-GFP (Plasmodium falciparum, UniProt Q8I6Z5); experiment: Pull-down / co-precipitation of PmV-inhibitor complexes from DC6 lysates; assay type: binding
T1 construct: parasite cellular lysates of DC6 a clone that constitutively expresses PmV-GFP; expressed in transfected cells; host or cells: Plasmodium falciparum clone DC6 (3D7-derived; PmV-GFP under the native PmV promoter), crude lysate
T1 sequence (Q8I6Z5 whole entry): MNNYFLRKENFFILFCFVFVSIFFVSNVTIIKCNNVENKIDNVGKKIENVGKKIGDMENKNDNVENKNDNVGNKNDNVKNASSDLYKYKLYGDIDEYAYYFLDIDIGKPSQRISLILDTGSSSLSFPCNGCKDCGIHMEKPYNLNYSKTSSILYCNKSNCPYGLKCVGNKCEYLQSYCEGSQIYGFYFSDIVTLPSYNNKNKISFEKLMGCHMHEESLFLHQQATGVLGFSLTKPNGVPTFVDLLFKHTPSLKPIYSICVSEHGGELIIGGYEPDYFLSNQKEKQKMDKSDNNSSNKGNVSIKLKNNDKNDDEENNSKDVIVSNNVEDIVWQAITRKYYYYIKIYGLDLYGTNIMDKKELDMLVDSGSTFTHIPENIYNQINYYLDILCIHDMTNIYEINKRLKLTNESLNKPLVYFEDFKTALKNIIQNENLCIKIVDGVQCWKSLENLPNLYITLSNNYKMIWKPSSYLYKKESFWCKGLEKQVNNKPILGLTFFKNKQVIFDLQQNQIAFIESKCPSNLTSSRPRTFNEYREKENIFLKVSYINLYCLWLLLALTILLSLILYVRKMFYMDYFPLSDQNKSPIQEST
Description: Pull-down experiments were performed using parasite cellular lysates of DC6 a clone that constitutively expresses PmV-GFP [15]. […] [i] […] An anti-GFP antibody, 3E6, was added with protein A-agarose as above described and incubated 1 h at 4°C, with gentle agitation. The resin was washed 3 times with cold PBS and then boiled in Laemmli sample buffer for later biotin detection in a dot-blot format. [ii] […] Incubation was carried out for 1 h at 4°C gently maintaining the beads in suspension. Then the resin was washed 3 times with cold PBS and boiled in Laemmli sample buffer for subsequent protein western blot analysis of the pull-down material.

[1] = pH 7.4
Plasmepsin V (PmV) [2] = target: T2, Plasmepsin V (PmV) (Plasmodium falciparum, UniProt Q8I6Z5); experiment: PmV inhibition, fluorimetric PExEl cleavage assay; assay type: biochemical; conditions: for IC50: read-out: IC50
T2 construct: PmV was purified directly from parasites; made in house
T2 sequence (Q8I6Z5 whole entry): as above
Description: Saponin was added to culture to a final 0.05%; parasites were recovered via centrifugation at 4°C after 5 min of incubation on ice; parasite pellets were then washed twice in cold PBS and either immediately lysed or stored at -80°C until lysis. Parasites were lysed via three pulses of ultra-sonication of 10 sec duration, in PBS containing 0.5% Triton-X100 (TX-100). […] Quick washes of the resin were performed either in batches, or over columns, to remove unbound cellular material (four with ice-cold 0.5% TX-100 in PBS and a final one with cold PBS). Resin-bound PmV was stored in PBS at 4°C and used within 2–3 weeks, larger batches had Glycerol added to them, up to 10%, and were stored at -20°C for up to 5 months. […] Quality and purity of PmV batches were routinely confirmed by protein electrophoresis. Quantification of PmV was performed via densitometry analysis of stained protein SDS-PAGE gels relative to BSA standard curves.
(§1) PExEl cleavage activity was monitored by fluorimetric measurement of PExEl cleavage, as previously reported. […] PmV activity was performed at 37°C in 50 mM Tris-Maleate, pH 6.5, 50 mM NaCl, 0.05% TX-100, 2 mM DTT. Assays were routinely conducted in triplicate. Bead-bound enzyme was added to the reaction using ‘end-cut’ micropipette tips in order to facilitate sampling the suspension.
Inhibitory activities were measured in the presence of a substrate concentration of 3 μM by serial dilution of each compound in triplicates. […] Titration curves of the inhibitors were routinely composed of eleven points from 10 μM to 0.1 pM. PmV concentration was kept in the order of low picomolar (≤10 pM). […] Analysis of the half inhibitory activity (IC50) was performed by sigmoidal interpolation of the starting velocities of the hydrolytic reactions for each condition. Starting velocities were calculated on the initial linear range of the product progression curves. […] Data are presented with error bars indicating the standard deviation of three independent activity curves.

[3] = tested on: Plasmodium falciparum strain 3D7; experiment: Parasite growth inhibition by flow cytometry, strain 3D7; assay type: cell-based; conditions: for LD50 growth inhibition: asynchronous 3D7 cultures, about 4 days, 0.195–200 μM, flow cytometry
clone DC6 [4] = experiment: Parasite growth inhibition, clone DC6 (PmV-GFP, native promoter)
Description: (§3) Growth impairment of parasites in culture was tested as follows. Asynchronous erythrocyte cultures of Plasmodium falciparum strain 3D7 were initiated at a starting parasitemia of 0.2–0.5% in the presence of titration curves of the PmV inhibitors generated in this work. […] Cultures, live or fixed, were analyzed at day 3 and/or 4 after initiation, approximately~ 2 cell cycles of 3D7 strain. Parasitemia was measured by flow cytometry analysis of parasitized cells stained with 0.4 μg/ml Acridine Orange or 1 μM Topro 3 (Life Technology Invitrogen), using BD Fortessa or FACS Calibur instruments.
(§4) DC6 clone expresses PmV-GFP chimera under regulation of the native promoter [15]; G6 clone, the PmV-GFP-DD chimera under regulation of the native promoter (this paper) and #3 clone (episomally expressing PmV-GFP chimera under Hsp86-5', a strong and constitutive promoter) [15]. […] (B) Growth inhibition curves of parasites expressing different levels of PmV: 3D7 (blue dots and line), DC6 (green dots and line), G6 (PmV knock-down) (red dots and line) and #3 (Overexpressing PmV) (purple dots and line) were analysed in parallel. Growth inhibition was measured in triplicates. Dots represent actual data, lines the sigmoidal fitting obtained by non-linear regression analysis. […] Error bars show the standard deviation of the data.

[5] = tested on: HRPII-GFP PExEl-dependent secretion; experiment: In vivo inhibition of PExEl export, live microscopy of HRPII-GFP clone; assay type: cell-based, Plasmodium falciparum; conditions: 20 μM, 27 h, ring to trophozoite stages
Description: Parasites were imaged live or fixed. Fixation in 4% formaldehyde and 0.0075% glutaraldehyde, cell permeabilization, antibody incubation, and mounting were as previously described. Before imaging of HRPII-GFP clone, we treated with Compound 29 highly synchronized parasites at late trophozoite stage with inhibitors for 27 h, and then analyzed the distribution of the exported probe in newly invaded red blood cells. Images were acquired using a fluorescence microscope (BX51 Olympus). Live parasites were counter-stained using the nuclear dye Hoechst 33342 (Life Technologies—Molecular Probes).
Fig 16 Inhibition results in impairment of the PExEl secretion. (A) Microscopy analysis of the distribution of the PExEl-export fluorescent probe. Live parasites expressing HRPII-GFP, used as a probe for PExEl secretion, are imaged in the presence of Hoechst nuclear staining. Bright field (grey scale), nuclei (blue channel), HRPII-GFP (green) and the merged image of the fluorescent channels are presented from left to right. (panel a) untreated culture; (b) mock DMSO-treated culture; (c-f) culture treated with 20 μM 29 solubilized in DMSO (c) mid ring, (d) late-ring, (e) early-trophozoite, (f) late-trophozoite. Bar is 2 μm. […]

HRPII PExEl processing = experiment: HRPII PExEl processing, western blot; assay type: cell-based, Plasmodium falciparum; conditions: 20 μM, about 27 h, 3D7
Description: Protein analyses to detect PmV, HRPII and BiP via stained protein gels and blots, densitometry, antibody detection or HRP-conjugated Streptavidin, were conducted as previously described.
Fig 16 Inhibition results in impairment of the PExEl secretion. (A) Microscopy analysis of the distribution of the PExEl-export fluorescent probe. Live parasites expressing HRPII-GFP, used as a probe for PExEl secretion, are imaged in the presence of Hoechst nuclear staining. Bright field (grey scale), nuclei (blue channel), HRPII-GFP (green) and the merged image of the fluorescent channels are presented from left to right. (panel a) untreated culture; (b) mock DMSO-treated culture; (c-f) culture treated with 20 μM 29 solubilized in DMSO (c) mid ring, (d) late-ring, (e) early-trophozoite, (f) late-trophozoite. Bar is 2 μm. Impairment of HRPII-GFP PExEl-dependent export is observed in these representative images of live parasites and the GFP signal appears concentrated in regions of immediate proximity to the nuclei. […] (B) HRPII PExEl processing is inhibited by Compound 29. Western blot analysis of HRPII contained in parasites after saponin treatment. Arrows show the pro-form (p) and the mature (m) protein HRPII. 3D7 culture was incubated as described in Materials and Methods with 20 μM Compound 29 for about 27 h.

[6] = tested on: clone #3 (Overexpressing PmV); experiment: Parasite growth inhibition, clone #3 (overexpressing PmV-GFP)
Description: as §3, §4

[7] = tested on: clone G6 (PmV knock-down); experiment: Parasite growth inhibition, clone G6 (PmV-GFP-DD, PmV knock-down); conditions: clone G6, absence of Shield-1
Description: as §3
(B) Growth inhibition curves of parasites expressing different levels of PmV: 3D7 (blue dots and line), DC6 (green dots and line), G6 (PmV knock-down) (red dots and line) and #3 (Overexpressing PmV) (purple dots and line) were analysed in parallel. Growth inhibition was measured in triplicates. Dots represent actual data, lines the sigmoidal fitting obtained by non-linear regression analysis. […] Error bars show the standard deviation of the data.

clone G6 (PmV-GFP-DD) = experiment: Growth curve analysis over 10 days, clone G6; assay type: cell-based, Plasmodium falciparum; set-up: growth rate (r): unit not given here; conditions: 0.75 μM Shield-1
From the text: (§2) Fig 14 PmV-GFP-DD clone G6 generation and characterization. (A) Creation of a PmV-GFP-DD chimera by homologous recombination. […] The plasmid contains sequence from the PmV ORF 3’ end in frame with GFP-DD [24]. Relative positions of BsrGI restriction sites (vertical bars) and the probe are indicated. (B) Southern blot of BsrGI-restricted DNA from the parental strain 3D7, the 3 drug cycles (Selection I, II, III), 3 of the isolated clones, among which G6 is number 3, and the transfected plasmid (at the far right) is shown. Arrows: endogenous gene (blue), and modified PmV locus (green). (C) Live microscopy of the clone expressing the cytosolic YFP-DD chimera (via episomally maintained plasmid) and G6 in presence or absence of 0.5 μM Shield-1. Top to Bottom: bright field (grey), Hoechst (blue), fluorescent proteins (green), Lysotracker (red), merges of the blue and green channels and of all three channels. (D) Western blot of total lysates of parasites at diverse concentrations of Shield-1 (0–1 μM): clone DC6, clone G6 and 3D7 expressing YFP-DD. PmV was detected with both anti-GFP and anti-PmV. BiP detection served as loading control. (E) Live microscopy of the G6 clone expressing the PmV-GFP-DD chimera at various Shield-1 concentrations (0–1 μM). (F) PmV levels from DC6 (green) and G6 (red) were quantified from blot (panel D) and plotted as ratio of PmV to BiP. The last point of the ratio is affected by a reduced BiP expression in 1 μM Shield-1. This is possibly due to the level of toxicity of this molecule at high concentrations. (G) Flow cytometry analysis of the GFP signal of PmV-GFP-DD (clone G6) in presence (green line) or absence (red line) of 0.75 μM Shield-1 in respect of PmV-GFP (clone DC6) (black line). The cellular levels of PmV-GFP(±DD) are similar in the presence 0.75 μM Shield-1 while PmV-GFP-DD is about 4 times less than PmV-GFP in the absence of Shield-1. (H) Growth curve analysis over 10 days for PmV-GFP-DD and DC6 in the presence or absence of 0.75 μM Shield-1.

clone DC6 [8] = experiment: Growth curve analysis over 10 days, clone DC6; assay type: cell-based, Plasmodium falciparum; set-up: growth rate (r): unit not given here; conditions: 0.75 μM Shield-1
From the text: as §2

PmV = conditions: different substrate at […], different buffer; ref [19], [20]; read-out: IC50, published value; cited from earlier work
Plasmepsin V (PmV) [9] = target: T2, Plasmepsin V (PmV); experiment: PmV steady-state kinetics of substrate hydrolysis; assay type: biochemical
Description: as §1
Steady-state measurements of PmV substrate hydrolysis were analyzed assuming the widely accepted aspartic protease mechanism, E + S → ES → ET* → EP → E + P, where P is the product of the reaction; S is the substrate; E is the free enzyme; ES, ET* and EP denote the enzyme-substrate, the transition state and enzyme-product adducts, respectively. The measurement of steady-state velocity of product formation, v = d[P]/dt, yielded catalytic constants according to the classical Michaelis-Menten equation v = e * kcat *[S] / ([S] + K M), where e is enzyme concentration. In our experimental conditions the fluorescence of HETQ-EDANS (AnaSpec), the reaction product (P), was quantified by titration. PmV kinetics parameters were calculated using non-linear curve-fitting analyses from SigmaPlot on the basis of measurements with multiple substrate concentrations monitored until the completion of the reaction. […]

[10] = 3 μM HRPII-PExEl substrate, averages of not less than three inhibition curves

CC(C)C[C@H](NC(=O)[C@@H](N)CCCNC(=N)N)C(=O)N[C@@H](CC(C)C)C(O)CN[C@@H](C)C(=O)N[C@@H](CCC(=O)O)C(=O)N[C@@H](C)C(N)=O (mixture of isomers) [Compound 1]
competition of Compound 36 binding to PmV (PmV-GFP; 50 μM competitor): negatively affects the interaction between Compound 36 and PmV
logD [1]: -4.28
Ki (Plasmepsin V (PmV) [2]): 0.2 nM
IC50 (Plasmepsin V (PmV) [2]; [10]): 0.37 nM
IC50 (Plasmepsin V (PmV) [2]; 3 μM substrate): 0.367 nM
IC50 (Plasmepsin V (PmV) [2]; inhibitor added after the reaction was initiated): 0.329 nM
IC50 (Plasmepsin V (PmV) [2]; pre-mixing the enzyme with inhibitor): 0.367 nM
greater inhibition efficiency relative to WEHI916 (Plasmepsin V (PmV) [2]; side-by-side comparison): ~ 100 fold
LD50 growth inhibition [3]: > 200 µM

CC(C)C[C@H](NC(=O)[C@@H](N)CCCCN)C(=O)N[C@@H](CC(C)C)C(O)CN[C@@H](C)C(=O)N[C@@H](CCC(=O)O)C(N)=O (mixture of isomers) [Compound 29]
logD [1]: -5.99
IC20 (clone DC6 [4]): 12.8 µM
IC50 (clone DC6 [4]): 18.5 µM
IC80 (clone DC6 [4]): 27.1 µM
IC50 increase compared to Compound 13a (Plasmepsin V (PmV) [2]): 8 fold
Ki (Plasmepsin V (PmV) [2]): 1060 nM
IC50 (Plasmepsin V (PmV) [2]; [10]): 1970 nM
effect on HRPII-GFP PExEl-dependent secretion [5]: impairment of HRPII-GFP PExEl-dependent secretion was observed
effect on natural processing of HRPII (HRPII PExEl processing): inhibited
LD50 growth inhibition [3]: ~ 15 μM and 15.2 μM
IC20 ([3]; strain 3D7, parental line): 14 µM
IC50 ([3]; strain 3D7, parental line): 17.9 µM
IC80 ([3]; strain 3D7, parental line): 22.7 µM
IC20 [6]: 25.1 µM
IC50 [6]: 27.5 µM
IC80 [6]: 30.1 µM
IC20 [7]: 7.68 µM
IC50 [7]: 12.5 µM
IC80 [7]: 20.2 µM

CC(C)C[C@H](NC(=O)[C@H](CCCNC(=N)N)NC(=O)CCCNC(=O)CCCNC(=O)CCCC[C@@H]1SC[C@@H]2NC(=O)N[C@@H]21)C(=O)N[C@@H](CC(C)C)C(O)CN[C@@H](C)C(=O)N[C@@H](CCC(N)=O)C(=O)N[C@@H](C)C(=O)O (stereo partly drawn) [Compound 36]
interaction with PmV in pull-down / immuno-precipitation (PmV-GFP; DC6 lysate, 50 μM or streptavidin-resin bound): confirmed the interaction between our inhibitor and PmV

CC[C@H](C(=O)N1CCCC[C@H]1C(=O)O[C@H](CCc1ccc(OC)c(OC)c1)c1cccc(OCCN2CCOCC2)c1)c1cc(OC)c(OC)c(OC)c1 [Shield-1]
doubling time (T) (clone G6 (PmV-GFP-DD)): 34.15 h
growth constant (k) (clone G6 (PmV-GFP-DD)): 0.0203
growth rate (r) (clone G6 (PmV-GFP-DD)): 2.05
doubling time (T) (clone DC6 [8]): 34.83 h
growth constant (k) (clone DC6 [8]): 0.0199
growth rate (r) (clone DC6 [8]): 2.01

CC(C)C[C@H](NC(=O)[C@@H](NC(=O)[C@H](CCCNC(=N)N)NS(=O)(=O)Cc1ccccc1)C(C)C)[C@@H](O)CC(=O)NCCc1ccccc1 [WEHI916, reference compound]
IC50 (Plasmepsin V (PmV) [2]; [10]): 32.4 nM
IC50 (PmV): 19 to 20 nM

DABCYL-LNKRLLHETQ-EDANS ({DABCYL}-LNKRLLHETQ-{EDANS}; SMILES CC(C)C[C@H](NC(=O)c1ccc(/N=N/c2ccc(N(C)C)cc2)cc1)C(=O)N[C@@H](CC(N)=O)C(=O)N[C@@H](CCCCN)C(=O)N[C@@H](CCCNC(=N)N)C(=O)N[C@@H](CC(C)C)C(=O)N[C@@H](CC(C)C)C(=O)N[C@@H](Cc1c[nH]cn1)C(=O)N[C@@H](CCC(=O)O)C(=O)N[C@H](C(=O)N[C@@H](CCC(N)=O)C(=O)NCCNc1cccc2c(S(=O)(=O)O)cccc12)[C@@H](C)O) [HRPII-derived fluorogenic substrate of PmV]
Km (Plasmepsin V (PmV) [9]): 3.48 µM
K M (Plasmepsin V (PmV) [9]; substrate 0.19 to 6 μM): 3.48 (±0.7) 10^−6 M
